Source: US20230097883A1, “ERGOTHIONEINE PET COMPOUNDS AND METHODS OF USE THEREOF” (VANDERBILT UNIVERSITY, priority 2021, published 2023)

Tests used:
[1] = Cupric ion chelating (CIC) assay; format: biochemical; settings: increasing ERGO concentrations
Description: We also assessed ERGO's transition metal scavenging using cupric ion chelating (CIC) and ferrous ion chelating (FIC) assays. In these experiments, pyrocatechol violet or ferrozine forms a complex with free Cu(II) or Fe(II), respectively, resulting in a chromophore with a strong absorbance signal. The pyrocatechol violet-COI) complex has an absorbance lambda max (λmax) at 630 nm, and ferrozine-Fe(II) has a λmax at 562 nm. In the presence of ERGO, fewer free metals are available to form these complexes, resulting in less absorbance.
The copper chelating activity of ERGO was determined using a CIC assay (Zen-Bio Inc., Durham, N.C.). Assays contained triplicated samples, standards, background, and max absorbance wells. All the assay absorbance values were subtracted from the average background absorbance, comprising of water and assay buffer (1:1). Maximal absorbance was measured by averaging the absorbance values of 3 wells containing only CuSO4 and assay buffer. […] The plate was then read at 632 nm using a Biotek Synergy 4 plate reader. Absorbances were averaged, and the background absorbance was subtracted from the sample and maximum averages (Abstest and Absmax). Cupric ion chelating percentage was then calculated using the following equation: Cupric ion chelating (%)=100×(Absmax−Abstest)/Absmax.

[2] = system: GFAP-positive astrocytes; experiment: GFAP immunohistochemistry of brain sections after ERGO treatment; format: in vivo, mouse; settings: ERGO-treated versus non-treated 5XFAD mice
Experimental: In this study, after the PET imaging, animals (non-treated 5XFAD (n=3) and ERGO-treated 5XFAD mice (n=5)) were perfused, and the brain sections were stained with antibodies against GFAP and IBA1 for neuroinflammatory markers astrocytes and microglia, respectively.
Brains embedded in OCT were cut into sagittal sections (10 μm) using a Tissue-Tek cryostat and mounted onto charged glass slides. Prior to staining, slides were washed with PBS (10 min); then, they were treated with blocking buffer (5% normal goat serum, 0.2% Triton X-100, 0.5% bovine albumin in PBS) for 1 h at room temperature. The treated sections were then incubated overnight at 4° C. with primary anti-GFAP antibody (1:100 dilution, Biolegend San Diego, Calif., USA). Slides were washed with PBS (3×) for 10 min each, the sections were subsequently incubated with secondary antibody goat anti-mouse Alexa Fluor 488 (1:200 dilution, Thermo Fisher Scientific, Carlsbad, Calif., USA) for 30 min at room temperature. The sections were then washed with PBS twice for 10 min and once for 30 min, and coverslipped with an antifade mounting medium (Vector Laboratories, Burlingame, Calif.) before observation under a fluorescence microscope.
Quantitative analysis of the PET imaging and IHC data was performed using imageJ software. […]

[3] = system: oxidative stress; experiment: Dynamic microPET uptake and retention of [11C]ERGO in brains of 5XFAD versus WT mice; format: in vivo, mouse; settings: 10-month-old, n=4, 14.8 MBq in 0.1 mL via tail vein
Experimental: Dynamic uptake and retention of [^11C]ERGO radioligand. Two cohorts of age-matched mice (10-month-old, n=4, each), including 5XFAD and WT animals, were injected with a consistent amount of 14.8 MBq of [^11C]ERGO in 0.1 mL via the tail vein prior to acquiring dynamic imaging. […] In this work, we decided to run 20-min dynamic scans to test, as a proof-of-concept, whether the affinity of ERGO for radicals and/or metals, which are integrated in or very closely associated with Abeta aggregates, would trap the probe. […] The mean percent of ID/g in the brains of 5XFAD mice (n=4) were 0.81±0.09, 0.72±0.09, 0.72±0.10, 0.71±0.12, 0.72±0.08, 0.83±0.10 for cortex, hippocampus, striatum, thalamus, cerebellum and whole brain, respectively, whereas for WT mice (n=4), the values were 0.52±0.13, 0.47±0.18, 0.47±0.15, 0.42±0.18, 0.51±0.13, 0.55±0.14. […] 5XFAD brains are associated with high levels of GFAP and IBA1 expression. After PET/CT imaging, animals underwent through the cardiac perfusion process, and the brains were embedded in OCT solution for micro-sectioning. […] The hippocampal regions of 5XFAD mice, including the dentate gyrus (DG), Cornu ammonis (CA) and the surrounding regions are populated with astrocytes, which were detected and quantified by immunostaining using anti-GFAP antibody. […] Quantitatively, about 2-fold higher levels of this inflammatory marker is found in 5XFAD versus control mice (*p<0.05). In a similar observation, 5XFAD mouse brains have greater numbers of IBA1-positive activated microglia (arrows) compared to WT counterparts.
Dynamic PET imaging. The dynamic acquisition was divided into twelve 5 sec frames, four 60 sec frames, five 120 sec frames, three 5 min frames, and six 10 min scans. The data from all possible lines of response (LOR) were saved in the list mode raw data format. The raw data were then binned into 3D sinograms with a span of 3 and ring difference of 47. The images were reconstructed into transaxial slices (128×128×159) with voxel sizes of 0.0815×0.0815×0.0796 cm^3, using the MAP algorithm with 16 subsets, 4 iterations, and a beta of 0.0468. For anatomical co-registration, immediately following the PET scans, the mice received a CT scan in a NanoSPECT/CT (Mediso, Wash. D.C.) at an X-ray beam intensity of 90 mAs and x-ray peak voltage of 45 kVp. The CT images were reconstructed into 170×170×186 voxels at a voxel size of 0.4×0.4×0.4 mm^3. The PET/CT images were uploaded into Amide software (www.sourceforge.com), co-registered to an MRI template made in-house, and volumetric regions-of-interest were drawn around the cortex, hippocampus, striatum, thalamus, and cerebellum in addition to the whole brain. The PET images were normalized to the injected dose, and the time-activity-curves (TACs) of the mean activity within the ROIs were estimated for the entire duration of the scans.

C[N+](C)(C)[C@@H](Cc1c[nH]c(=S)[nH]1)C(=O)[O-] [ERGO, L-ergothioneine]
absorbance signal of pyrocatechol violet-Cu(II) complex [1]: decreased as the concentrations of ERGO increased in a dose-dependent fashion | reduction of GFAP-positive astrocytes in the hippocampus [2]: ~50%

C[N+](C)([11CH3])[C@@H](Cc1c[nH]c(=S)[nH]1)C(=O)[O-] [[^11C]ERGO]
mean percent of ID/g, cerebellum ([3]; 5XFAD mice): 0.72±0.08% of ID/g | mean percent of ID/g, cortex ([3]; 5XFAD mice): 0.81±0.09% of ID/g | mean percent of ID/g, hippocampus ([3]; 5XFAD mice): 0.72±0.09% of ID/g | mean percent of ID/g, striatum ([3]; 5XFAD mice): 0.72±0.10% of ID/g | mean percent of ID/g, thalamus ([3]; 5XFAD mice): 0.71±0.12% of ID/g | mean percent of ID/g, whole brain ([3]; 5XFAD mice): 0.83±0.10% of ID/g | mean percent of ID/g, cerebellum ([3]; WT mice): 0.51±0.13% of ID/g | mean percent of ID/g, cortex ([3]; WT mice): 0.52±0.13% of ID/g | mean percent of ID/g, hippocampus ([3]; WT mice): 0.47±0.18% of ID/g | mean percent of ID/g, striatum ([3]; WT mice): 0.47±0.15% of ID/g | mean percent of ID/g, thalamus ([3]; WT mice): 0.42±0.18% of ID/g | mean percent of ID/g, whole brain ([3]; WT mice): 0.55±0.14% of ID/g
